In patent US11357777B2, “Use of sGC stimulators for the treatment of nonalcoholic steatohepatitis (NASH)” (Cyclerion Therapeutics, Inc., priority 2016, dated 2022):
Entries after “also recorded” stand apart in the source; their conditions may differ. Where two headings read alike, the source gives them in different places.

Columns and labels:
rat animal model of NASH = conditions: cited from earlier work
OB/OB mice = conditions: cited from earlier work
[1] = Distribution of sGC stimulators in tissues, rats (liver and plasma by LC-MS/MS); type: in vivo; conditions: Wistar, rat, 2 h post fifth dose, male rats, read-out: total Liver:Plasma ratio
Procedure: The purpose of this experiment was to determine compound concentrations in the plasma and tissues of animals dosed with sGC stimulators for 5 days Q.D.
In a first experiment, the sGC stimulator Compound B (described previously in Example 2) was dosed for 5 Days Q.D. to male Wister rats. Rats were divided into four study groups and dosed according to the below table:
The animals were dosed daily for five consecutive days according the table above. On each day of dosing, frozen aliquots of each dosing solution were thawed and the animals were weighed and dosed accordingly. On day 5, two hours post the fifth dose, blood was collected by orbital bleed. Blood samples were collected in EDTA tubes pre-loaded with 5 μL of 100 mM IBMX Plasma was be separated by centrifugation for 10 minutes at 4° C. and then stored at −80° C.
A Ketamine/Xylazine/pbs solution as a 5:1:4 ratio was administered I.P. at 1 ul per gram. Once the rat was fully anesthetized (as determined by checking its reflexes) and while the heart was still beating, a needle was inserted into the left ventricle. Approximately 20 mls of PBS/IBMX/heparin solution were then perfused. The right atrium was snipped, and perfusion continued for approximately 10 additional mls (30 mls total). At this point, the femoral artery was snipped and perfusion was continued until there was no longer blood (only clear fluid) collecting in the abdominal cavity. Several tissues, including liver, were isolated and weighed followed by snap freezing.
A second separate and similar experiment was carried out with Compound C. The structure of Compound C is depicted below. The preparation and characterization of this compound was described in patent application publication WO2014144100, published 18 Sep. 2014.
For this second experiment, rats were divided into four study groups and dosed according to the below table:
Samples were analyzed using liquid chromatography (LC) with tandem mass spectrometric detection (MS/MS) using positive electrospray ionization. The standard curve range was from 0.1 to 400 ng/mL. […]
In order to prepare the tissues for measurement, the naïve livers and the livers isolated after treatment were removed from the −80° C. freezer and placed on liquid nitrogen. The liver weight was recorded and then the tissue placed in a Geno grinding vial containing two 7/16″ steel beads. […] Approximately 200 mg of tissue from each sample was weighed and recorded. […] The samples were analyzed by LC-MS/MS.
Total liver and plasma concentrations were measured and liver concentrations were corrected for total liver weight. Liver: Plasma ratios were determined by dividing liver compound concentration by the plasma compound concentration. […]

[2] = test system: alpha-SMA (alpha-smooth muscle actin) mRNA expression; assay: CCl4-induced changes in liver fibrosis marker in C57BL/6 mice; type: in vivo
Procedure: A pilot study using male C57BL/6 mice was carried out to explore the changes in liver fibrosis biomarker after one single injection of carbon tetrachloride (CCl4) given by intraperitoneal (IP) administration and the effect of several substances, including an sGC stimulator, in this model. Injection of CCl4 in mice results in elevation of alpha-SMA (alpha-smooth muscle actin) mRNA expression and this can be used as a biomarker of fibrosis in the liver. A reduction in the expression levels of this biomarker and reversal towards the normal levels, upon administration of an sGC stimulator, can be used to assess the potential utility of the compound in the treatment of liver fibrosis.
Mice used were 8 weeks old at receipt, healthy, and unused in other experimental procedures. Housing and care were as specified in the USDA Animal Welfare Act (9 CFR, Parts 1, and 3) and as described in the Guide for the Care and Use of Laboratory Animals from the National Research Council. Environmental conditions in housing rooms were set at the following ranges for acclimation and naive groups: temperature: 68±5° F. […], humidity: 50±:20%; light cycle: 12 hour light/12-hour dark; air changes: ten or more changes per hour with 100% HEPA filtered fresh air. Mice were given regular chow and water ad libitum and were not fasted overnight prior to compound administration.
CCl4 was dosed once to all animals, via intraperitoneal administration (IP) at a concentration of 15 μl (dissolved in 85 μl of corn or olive oil) and a dose volume of 100 μl per 30 g of mouse. Compound A was dosed to mice via oral administration (PO, by oral gavage), BID for 3 days at a concentration of 3 mg/mL (0.5% Methylcellulose) and a dose volume of […]. The single dose of CCl4 was administered two hours after the first dose of Compound A. The second dose of Compound A was administered 7 hours after the first dose. After three days of dosing, the animals were sacrificed and plasma and liver samples obtained for analysis.
Total RNA was extracted from isolated tissues by adding 1 ml Trizol and a stainless steel bead to each sample, and homogenized using a TissueLyser II at the highest speed (30 Hz) for 2 minutes at room temperature. After homogenization, 200 μl chloroform was added to each homogenized sample. The homogenate was vortexed briefly and left in an upright position at room temperature for 2-5 minutes until phase separation became visible by eye. Samples were centrifuged for 15 minutes at the highest speed (13,200 rpm) at 4° C. in an Eppendorf centrifuge.
After 15 minutes at the highest speed (13,200 rpm) centrifugation at 4° C., the supernatant of each sample (˜500 μl) was transferred into a new RNase-free tube. […]

human brown adipocytes = conditions: cited from earlier work
primary white adipocytes = conditions: cited from earlier work
[3] = test system: WT mice fed a high fat diet (HFD); conditions: cited from earlier work
[4] = 8 weeks at 300 mg/kg/24 hours in food and intraperitoneally at 1 mg/kg

CC(=O)N[C@@H](CSN=O)C(=O)O [SNAP, S-Nitroso-N-acetylcysteine]
onset of NASH (rat animal model of NASH): prevent the onset of NASH
effect on NASH (OB/OB mice): prevent and reverse NASH

NC(=O)[C@](O)(CNc1nc(-c2cc(-c3ccon3)n(Cc3ccccc3F)n2)ncc1F)C(F)(F)F [Compound C]
Kp ([1]; 1 mg/kg PO Q.D. 5 days): 6
Kp ([1]; 10 mg/kg PO Q.D. 5 days): 8

NC(=O)[C@@](O)(CNc1nc(-c2cc(-c3ccon3)n(Cc3ccccc3F)n2)ncc1F)C(F)(F)F [Compound A]
relative reduction of the increased alpha-SMA mRNA expression levels ([2]; 30 mg/kg dose): about 66%
reduction of alpha-SMA expression compared with pirfenidone-treated samples ([2]; PO BID for 3 days, single IP CCl4): significantly more pronounced
reduction of elevated levels of alpha-SMA expression compared to vehicle ([2]; PO BID for 3 days, single IP CCl4, vs vehicle (0.5% methyl cellulose)): statistically significant reduction

Nc1nc(-c2nn(Cc3ccccc3F)c3ncccc23)nc(N)c1N1CCOCC1 [BAY 41-8543]
differentiation of human brown adipocytes (human brown adipocytes): enhances
browning of primary white adipocytes (primary white adipocytes): induces ‘browning’; also recorded: induces “browning”
lipid uptake into BAT [3, 4]: enhances
whole-body energy expenditure [3, 4]: increases
triglyceride content in the liver ([3]; WT mice fed a HFD, obese phenotype, compared to mice fed regular chow): significant reduction
diabetic phenotype ([3]; mouse, in vivo): improves
diet-induced weight gain and liver steatosis ([3]; mouse, in vivo): protects against
weight loss in established obesity ([3]; mouse, in vivo): induces weight loss

Cc1ccc(=O)n(-c2ccccc2)c1 [pirfenidone, reference compound]
relative reduction of the increased alpha-SMA mRNA expression levels ([2]; 400 mg/kg dose): about 20%
